Source: patent US20080009025A1, “PROTEIN KINASE REGULATION” (priority 1999, published 2008)
Where a SMILES comes first, the peptide text is derived from it.

Tests used:
Myc-PDK1 = biological target: T1, Myc-PDK1 (Homo sapiens, UniProt O15530); test: Glutathione-Sepharose pull-down of Myc-PDK1 with GST-PIF from 293 cells; assay type: binding
T1 construct: expressed in transfected cells; host or cells: 293 cells
T1 sequence (O15530 1-556): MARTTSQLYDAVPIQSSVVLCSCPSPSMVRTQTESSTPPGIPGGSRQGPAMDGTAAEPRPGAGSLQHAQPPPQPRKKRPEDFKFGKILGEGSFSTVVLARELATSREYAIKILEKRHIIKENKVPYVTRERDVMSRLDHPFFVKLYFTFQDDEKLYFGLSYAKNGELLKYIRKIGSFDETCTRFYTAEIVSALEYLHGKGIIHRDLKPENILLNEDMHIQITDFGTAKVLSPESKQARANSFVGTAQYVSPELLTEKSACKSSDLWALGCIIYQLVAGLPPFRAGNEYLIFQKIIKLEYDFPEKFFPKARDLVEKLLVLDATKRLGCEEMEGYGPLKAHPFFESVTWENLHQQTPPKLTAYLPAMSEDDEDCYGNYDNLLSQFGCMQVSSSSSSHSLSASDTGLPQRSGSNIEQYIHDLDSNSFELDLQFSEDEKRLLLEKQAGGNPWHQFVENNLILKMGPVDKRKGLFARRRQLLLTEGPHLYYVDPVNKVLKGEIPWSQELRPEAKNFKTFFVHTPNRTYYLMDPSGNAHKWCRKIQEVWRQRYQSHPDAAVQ
Experimental: FIG. 9. Effect of mutation of conserved residues in the PIF-binding pocket of PDK1 on the ability to interact with PIF. 293 cells were transiently transfected with DNA constructs expressing GST-PIF and either wild type Myc-PDK1 or the indicated mutants of PDK1. 36 h post transfection the cells were lysed and GST-PIF purified by affinity chromatography on glutathione-Sepharose beads. 2 μg of each protein was electrophoresed on a 10% SDS/polyacrylamide gel and either stained with Coomassie blue (A and E) or immunoblotted using an anti Myc antibody to detect Myc-PDK1 (B and F). To establish that the wild type PDK1 and mutant proteins were expressed at a similar level, 10 μg of total cell lysate was electrophoresed on a 10% SDS/polyacrylamide gel and immunoblotted using anti-Myc antibodies (C and G). Duplicates of each condition are shown. Similar results were obtained in 3 to 5 separate experiments. […]
A pEBG2T plasmid encoding GST fused to the last 77 residues of PRK2 termed GST-PIF (10 μg) and pCMV5 plasmid expressing Myc-PDK1 wild type or the indicated mutants of PDK1 (10 μg), were co-transfected into a 10 cm diameter dish of 293 cells using a modified calcium phosphate method. […] The gels were either stained with Coomassie blue, or analysed by immunoblotting with anti Myc antibodies.

PDK1-wt = biological target: T2, PDK1-wt (Homo sapiens, UniProt O15530); test: Phosphorylation of AGC kinase substrates by PDK1 (32P, PhosphoImager); assay type: biochemical; conditions: hydrophobic motif Phe to Ala mutants
T2 construct: made in house; host or cells: human embryonic kidney 293 cells
T2 sequence (O15530 1-556): T1 sequence (O15530 1-556)
Experimental: Phosphorylation of AGC kinase substrates by PDK1. The phosphorylation of PDK1 substrates was performed in a final volume of 20 μl in a buffer containing 50 mM Tris-HCl pH 7.5, 0.1% (by vol) 2-mercaptoethanol, 10 mM magnesium chloride, 100 μM [γ-^32P]ATP (˜1000 c.p.m./pmol), 0.5 μM microcystin-LR, 0.6 μM AGC kinase substrate and 0.6 to 30 nM wild type PDK1 or the indicated mutant of PDK1.
Relative phosphorylation of PDK1 substrates. PDK1 substrates were phosphorylated in vitro, subjected to SDS-PAGE, and radioactivity associated with the bands measured using a Phospho-Imager and known amounts of ATP as standard. The phosphorylation rate of PKB[S473D] in the presence of PtdIns (3,4,5)P3 was 2.6 mol/mol PDK1/min and was taken as the relative value of 100. Average values from a representative experiment performed in duplicates are shown.

PDK1 = biological target: T3, PDK1 (Homo sapiens, UniProt O15530); set-up: Full length PDK1 (residues 1-556); made in house; host or cells: 293 cells; conditions: ref [17]; cited from earlier work
T3 sequence (O15530 1-556): T1 sequence (O15530 1-556)

| Compound | complex with wild type PDK1 (Myc-PDK1) | basal rate at which PDK1 phosphorylated S6K1[F411A], SGK1[F421A] and ΔPH-PKBα[F472A] (PDK1-wt) | increase in the rate at which PDK1 phosphorylated T308tide (PDK1) [fold] |
| --- | --- | --- | --- |
| GST-PIF: glutathione S-transferase fused to the last 77 residues of PRK2 (PIF) | a complex was readily observed | – | – |
| CC[C@H](C)[C@H](NC(=O)[C@H](Cc1ccc(O)cc1)NC(=O)[C@H](CC(=O)O)NC(=O)[C@H](Cc1ccccc1)NC(=O)[C@H](CC(=O)O)NC(=O)[C@H](CCCNC(=N)N)NC(=O)[C@H](Cc1ccccc1)NC(=O)[C@H](CCSC)NC(=O)[C@H](CCC(=O)O)NC(=O)[C@H](CCC(N)=O)NC(=O)[C@H](CCC(=O)O)NC(=O)[C@H](CCC(=O)O)NC(=O)[C@H](CCC(=O)O)NC(=O)[C@H](CO)NC(=O)[C@H](CC(C)C)NC(=O)[C@@H](NC(=O)[C@H](CCCNC(=N)N)NC(=O)[C@@H]1CCCN1C(=O)[C@H](CCC(=O)O)NC(=O)[C@@H](N)CCCNC(=N)N)[C@@H](C)CC)C(=O)N[C@@H](C)C(=O)N[C@@H](CC(=O)O)C(=O)N[C@@H](Cc1c[nH]c2ccccc12)C(=O)N[C@@H](CS)C(=O)O [PIFtide] (H-REPRILSEEEQEMFRDFDYIADWC-OH; N-terminus and C-terminus assumed) | – | not inhibited | 4 |
